“And” between values parts separate entries of the source, which are not always exact repeats. Equal entries are not always repeated. “Also recorded” adds a separate entry of the source.
Tests used:
cyclic GMP = assay: Cyclic GMP accumulation in laboratory tests
Source text: It has been furthermore shown through the laboratory tests that no relationship between the amount of the measured cyclic guanine mono-phosphate (GMP) and the extent of the inhibitory effect can be observed.
In our experiments, the development of nitrate tolerance seems to be related to cyclic GMP accumulation, being greater in the case of NTG, thus confirming that SH groups consumption is the molecular mechanism responsible for this phenomenon.

isolated rabbit heart = assay: Vasodilatory effect on isolated rabbit heart with vasopressin-induced spasm (coronary perfusion pressure)
Experimental: All nitroderivatives induce a tolerance phenomenon but the degree of the lack of the vasodilatory effect was lesser in the case of isosorbide 2-nitroderivative. […] Isolated rabbit hearts and aortic strips were used as experimental model to evaluate drugs acting on coronary resistance and vascular contractility.
Vasodilatory effect was evaluated on isolated rabbit heart in presence of vasopressin-induced spasm by using concentration of 10⁻⁵M of the tested compounds.

[1] = Clinical trials of tongue absorption administration on onset of anginal attack; conditions: human, in vivo
[2] = Long-period stability of active principle in tablets
rabbit aortic strips = assay: Induction of nitrate tolerance in rabbit aortic strips preincubated with nitroderivative
[3] = Clinical trial, ergometer bicycle effort test before and after two months of chronic 2MN treatment; conditions: human, in vivo
[4] = Acute treatment by tongue absorption, pulmonary artery pressure by cardiac catheter; conditions: in vivo

Compound | cyclic GMP accumulation / increase (cyclic GMP) | inhibition at 10 µM (isolated rabbit heart; Oryctolagus cuniculus, isolated rabbit heart, vasopressin-induced spasm, 10⁻⁵M, read-out: reduce coronary spasm (coronary perfusion pressure, CPP)) [%] | effect on anginal attack [1] | activity in reducing coronary perfusion pressure relative to other nitroderivatives (isolated rabbit heart) | loss of active principle in the pharmaceutical forms (tablets) in the long period [2] | degree of desensitization after induction of nitrate tolerance (rabbit aortic strips) | degree of tolerance induced (rabbit aortic strips) | Exercise time [3] | Max work tolerated (watt) [3] | S-T (mm) [3] | S-T Δ % [3] | anginal attacks, nitroglycerin consumption and arterial pressure [3] | tolerance after chronic treatment [3] | Activity commences after taking the drug [4] [min] | Activity lasts (average) [4] [min] | Commencement of activity [4] | Max decrease in pulmonary artery pressure % [4]
O=[N+]([O-])OCC(CO[N+](=O)[O-])O[N+](=O)[O-] [NTG, nitroglycerin, reference compound] | greater | 80 | – | – | – | – | – | – | – | – | – | – | – | – | – | – | –
O=[N+]([O-])O[C@H]1CO[C@H]2[C@@H]1OC[C@H]2O [2MN, isosorbide 2-mononitrate] | lesser increase | – | able to prevent anginal attack or to cause its rapid regression; also recorded: Analogous results | more active than 5MN and ISDN | minimal | significantly lower | lesser degree of tolerance | 8.6 ± 1.4 min and 8.9 ± 1.1 min | 144±36 watt and 148±36 watt | 1.5±0.7 mm and 1.8±0.9 mm | -29 (P<0.05) % and -25 (P<0.05) % | noted reduction | does not give rise to tolerance | 3 to 4 | 80 | 180 s and 250 s and 230 s and 160 s and 200 s and 210 s and 204.2 s | 20% and 38% and 30% and 27% and 31% and 40% and 29% and 30.7%

Reference: patent publication EP0425902A1, “Use of isosorbide 2-mononitrate in the preparation of pharmaceutical compositions for treating angina pectoris” (ISCOFAR Sas di Paolo E. Ghirardi, priority 1989, dated 1991)
